{"source": "patent US20170029451A1", "about": "“BRANCHED CHAIN ACYCLIC NUCLEOSIDE PHOSPHONATE ESTERS AND METHODS OF SYNTHESIS AND USES THEREOF” (CHIMERIX, INC., priority 2013, published 2017)", "key": {"HHV-6B": {"tested_on": "HHV-6B", "test": "DNA hybridization assay for HHV-6B in MOLT-3 cells", "format": "cell-based, human herpes virus 6 (HHV-6)", "conditions": "Homo sapiens; Virus HHV-6B, cell line MOLT-3", "method": "Assays for EBV were performed in Akata cells that were induced to undergo a lytic infection with 50 μg/ml of a goat anti-human IgG antibody by standard methods. Experimental compounds were diluted in round bottom 96-well plates to yield concentrations ranging from 20 to 0.016 μM. Akata cells were added to the plates at a concentration of 4×10^4 cells per well and incubated for 72 h. For HHV-6 assays, compounds were serially diluted in 96-well plates then 1×10^4 uninfected HSB-2 or Molt-3 cells were added to each well. Infection was initiated by adding HHV-6A infected HSB-2 cells, or HHV-6B infected Molt-3 cells, at a ratio of approximately 1 infected cell for every 10 uninfected HSB-2 cells or Molt-3 cells respectively and incubated for 7 d at 37° C.\nFor all assays, 100 µl of denaturation buffer (1.2M NaOH, 4.5M […] NaCl) was added to each well to denature the DNA and a […] aliquot was aspirated through an Immobilon nylon membrane (Millipore, Bedford, Mass.) using a Biodot apparatus (Bio-Rad, Hercules, Calif.). The membranes were then allowed to dry before equilibration in DIG Easy Hyb (Roche Diagnostics, Indianapolis, Ind.) at 56° C. for 30 min. Specific digoxigenin (DIG)-labeled probes were prepared for each virus according to the manufacturer's protocol (Roche Diagnostics). […]"}, "Poliovirus 3": {"tested_on": "Poliovirus 3", "test": "microbe, parasite or virus in culture", "format": "cell-based", "conditions": "Enterovirus C, Vero 76"}, "in vitro": {"test": "in vitro", "conditions": "human"}, "HHV-8": {"tested_on": "HHV-8", "test": "HHV-8 antiviral activity in BCBL-1 cells", "format": "cell-based, human herpes virus 8 (HHV-8)", "conditions": "Homo sapiens, BCBL1; Virus HHV-8, cell line BCBL-1"}, "[1]": {"tested_on": "Vaccinia Virus (Strain Copenhagen)", "test": "microbe, parasite or virus in culture", "format": "cell-based", "conditions": "Orthopoxvirus vaccinia, Fibroblast, read-out: VACV EC50, μM"}, "[2]": {"tested_on": "HCMV UL54 resistant mutant 4955^R", "test": "microbe, parasite or virus in culture", "format": "cell-based, Human Cytomegalovirus (HCMV)", "conditions": "Human betaherpesvirus 5, Fibroblast"}, "BKV (Gardner strain)": {"tested_on": "BKV (Gardner strain)", "test": "BKV EC50 in Vero cells (qPCR of supernatant BKV DNA)", "format": "cell-based, BK virus (BKV)", "conditions": "Betapolyomavirus hominis", "method": "Costar 96-well tissue culture plates were seeded with 10,000 Vero cells/well in DMEM containing 2% Hyclone Standard Fetal Bovine Serum (FBS, Cat 5H30088.03) and 1% Hyclone Penicillin and Streptomycin. Outer wells were not used to minimize the edge-effect produced by extended incubations. Cells were inoculated with 115 BKV DNA copies/cell (ATCC, Gardner strain). Serial dilutions of test compounds were added to the cells and plates were incubated for 10 days at 37° C. in 5% CO2. After the 10-day incubation, 50 μL supernatant was mixed with 50 μL 2× lysis buffer that provided a final concentration 0.5 mg/mL protease K, 50 mM KCl, 10 mM Tris-Cl pH 8.0, 2.5 mM MgCl2, 0.45% IGEPAL, and 0.45% Tween-20 dissolved in DEPC-treated water. Each plate was incubated for 2 hours at 55° C. Supernatant BKV DNA was measured by quantitative polymerase chain reaction (qPCR) using forward and reverse BKV PCR primers, and a FAM-labeled probe. Absolute quantitation of viral copy number was performed using a standard curve with dilutions of a BKV DNA amplicon containing sequences homologous to the amplified fragment. The following qPCR amplification conditions were used: 1 cycle at 95° C. for 10 minutes, followed by 45 cycles of 95° C. for 15 seconds and 60° C. for 60 seconds. The qPCR reactions were performed using an Applied Biosystems 7500 real Time PCR System. Gen 5 software (BioTek Instruments, Inc.) was used to calculate the concentration which inhibited the viral DNA levels of BKV-infected Vero cells by 50% (EC50)."}, "[3]": {"test": "Cytotoxicity in MOLT-3 cells", "format": "cell-based", "conditions": "human, cell line MOLT-3 (HHV-6B row)", "method": "Cell viability in all assays with lymphocytes was assessed with the CellTiter-Glo Luminescent Cell Viability Assay (Promega). Briefly, assay plates were incubated at ambient temperature for 30 min then 50 µl of CellTiter-Glo reagent was added to each well and the plates were mixed for 2 min on an orbital shaker to lyse the cells. Plates were then incubated for an additional 10 min at ambient temperature and the luminescence was quantified on a luminometer. Standard methods were used to calculate drug concentrations that inhibited the proliferation of Akata, HSB-2, BCLB-1, or Molt-3 cells by 50% (CC50)."}, "HBV": {"tested_on": "HBV", "test": "HBV antiviral activity in 2.2.15 cells", "format": "cell-based", "conditions": "Hepatitis B virus, cell line 2.2.15"}, "[4]": {"tested_on": "Influenza virus B/FL/4/2006", "test": "microbe, parasite or virus in culture", "format": "cell-based", "conditions": "unidentified influenza virus, MDCK, read-out: B/FL/4/2006 (EC50, μM)"}, "MCMV": {"tested_on": "MCMV", "test": "MCMV antiviral activity in MEF cells", "format": "cell-based", "conditions": "Virus MCMV, cell line MEF"}, "HCMV (Strain AD169)": {"tested_on": "HCMV (Strain AD169)", "test": "Plaque reduction assay, HCMV AD169 in human foreskin fibroblast cells", "format": "cell-based, Human Cytomegalovirus (HCMV)", "conditions": "for EC50: Human betaherpesvirus 5, AD169, Fibroblast"}}, "note": "Like-named read-outs stand apart in the source and are kept apart here."}
{"compound": "CC(C)CCCCCCCCCCCCCCOCCCOP(=O)(O)COC(CO)Cn1ccc(=O)[nH]c1=O", "note": "(stereo not drawn) [Compound 12]", "values": [{"measurement": "EC50", "setting": "HHV-6B", "result": 4.7, "unit": "µM"}, {"measurement": "EC50", "setting": "Poliovirus 3", "result": 3.3, "unit": "µM"}, {"measurement": "CC50", "setting": "in vitro; CPXV CC50, μM, Human Foreskin Fibroblast Cells, parallel to CPXV assay", "result": "> 10", "unit": "µM"}, {"measurement": "CC50", "setting": "in vitro; HCMV CC50, μM", "result": "> 50", "unit": "µM"}, {"measurement": "CC50", "setting": "in vitro; HSV-1 CC50, μM", "result": "> 50", "unit": "µM"}, {"measurement": "EC50", "setting": "HHV-8", "result": "< 80", "unit": "nM"}, {"measurement": "EC50", "setting": "[1]", "result": "> 10", "unit": "µM"}, {"measurement": "EC50", "setting": "[2]; read-out: EC50 μM, Virus 4955^R, human foreskin fibroblast cells", "result": "~0.143", "unit": "µM"}, {"measurement": "EC90", "setting": "[2]; read-out: EC90 μM", "result": 0.372, "unit": "µM"}, {"measurement": "EC50", "setting": "BKV (Gardner strain); BKV in Vero cells (Table 7), read-out: BKV EC50", "result": 1550, "unit": "nM"}, {"measurement": "EC50", "setting": "BKV (Gardner strain); Virus BKV, cell line Vero (Table 8), read-out: EC50", "result": 2100, "unit": "nM"}, {"measurement": "CC50", "setting": "[3]", "result": 8.4, "unit": "µM"}, {"measurement": "EC50", "setting": "HBV", "result": 3000, "unit": "nM"}, {"measurement": "EC50", "setting": "[4]", "result": "> 4", "unit": "µM"}, {"measurement": "EC50", "setting": "MCMV", "result": 1600, "unit": "nM"}, {"measurement": "EC50", "setting": "HCMV (Strain AD169); Strain AD169, human foreskin fibroblast cells, read-out: HCMV EC50", "result": 52, "unit": "nM"}, {"measurement": "EC50", "setting": "HCMV (Strain AD169); Virus AD169, human foreskin fibroblast cells (Table 3), read-out: EC50", "result": "~52", "unit": "nM"}, {"measurement": "EC90", "setting": "HCMV (Strain AD169); Human betaherpesvirus 5, Virus AD169, human foreskin fibroblast cells", "result": 150, "unit": "nM"}]}
